Consider eight compounds from PubChem BioAssay (NCI).

Test systems include CAKI-1 renal; RPMI-8226 leukemia; RXF 393 renal; SF-268 CNS; HCT-15 colon; SW-620 colon; SN12C renal; SK-OV-3 ovarian; NCI-H23 lung; UO-31 renal.
Assay in all cases: inhibition of tumour cell growth, NCI panel, 48 h

Molecules are shown by their SMILES.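 Exposure lasted 48 hours, with cells grown in 96-well plates and compounds tested at five concentrations. GI50 marks 50% less growth. The concentration for full growth arrest is given as TGI.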

In the case of `CN(C)c1ccc(/C=c2/c3ccccc3n3c2c2cc(F)ccc2[n+]3C)cc1`, the GI50 with CAKI-1 renal is 11.6 µM; in the assay on RPMI-8226 leukemia, 0.715 µM; in the assay on RXF 393 renal, 5.91 µM; with SF-268 CNS, 3.38 µM; with HCT-15 colon, 18.8 µM; in the assay with SW-620 colon, 3.17 µM. The GI50 in the assay on SK-OV-3 ovarian is 34.1 µM; in the assay with NCI-H23 lung it was 14.1 µM; in the assay on UO-31 renal it was 8.21 µM. Further, the TGI in the assay on CAKI-1 renal is 29.4 µM; in the assay with RPMI-8226 leukemia it was 3.55 µM; with RXF 393 renal, 21.8 µM; in the assay with SF-268 CNS it was 15.7 µM; with HCT-15 colon it was greater than 57.6 µM; with SW-620 colon, 15.2 µM. In addition, the TGI with SN12C renal was 2.7 µM; with SK-OV-3 ovarian, greater than 100 µM; in the assay with NCI-H23 lung it was 30.9 µM; with UO-31 renal it was greater than 34.3 µM.
For the compound `NC(=S)N=Nc1c(O)c2ccccc2c2ccccc12`, the GI50 was 37.9 µM with CAKI-1 renal; 9.73 µM in the assay on RPMI-8226 leukemia; 18.7 µM in the assay with RXF 393 renal; 10.2 µM with SF-268 CNS; 3.22 µM in the assay on HCT-15 colon; 3.44 µM in the assay with SW-620 colon. Also, the GI50 in the assay on SN12C renal is 1.73 µM; in the assay with SK-OV-3 ovarian it was 21.5 µM; in the assay on NCI-H23 lung it was 2.26 µM; in the assay on UO-31 renal, 3.26 µM. Further, the TGI was greater than 100 µM in the assay with CAKI-1 renal; greater than 100 µM in the assay on RPMI-8226 leukemia; 44.7 µM with RXF 393 renal; 35.7 µM with SF-268 CNS; greater than 55.4 µM in the assay on HCT-15 colon; 26.6 µM in the assay with SW-620 colon. Also, the TGI is 3.47 µM in the assay with SN12C renal, 54.2 µM with SK-OV-3 ovarian, 6.1 µM in the assay on NCI-H23 lung and greater than 76.1 µM in the assay with UO-31 renal.
On to `C#COc1cccc(Nc2ncnc3cc(NC(=O)[C@H](C)Cl)ccc23)c1`, for which the GI50 in the assay with CAKI-1 renal was 2.95 µM; in the assay on RPMI-8226 leukemia it was 3.52 µM; with RXF 393 renal, 3.34 µM; in the assay with SF-268 CNS it was 4.3 µM; in the assay with HCT-15 colon it was 2.5 µM; in the assay on SW-620 colon, 2.58 µM. In addition, the GI50 with SN12C renal is 3.69 µM; in the assay with SK-OV-3 ovarian, 13 µM; in the assay with NCI-H23 lung, 7.66 µM; in the assay on UO-31 renal it was 7.94 µM. Moreover, the TGI was greater than 62.5 µM in the assay with CAKI-1 renal; greater than 62.5 µM with RPMI-8226 leukemia; 39.3 µM in the assay with RXF 393 renal; greater than 62.5 µM in the assay with SF-268 CNS; greater than 62.5 µM in the assay with HCT-15 colon; greater than 62.5 µM in the assay on SW-620 colon. Besides, the TGI in the assay with SN12C renal, in the assay with SK-OV-3 ovarian, with NCI-H23 lung and in the assay on UO-31 renal was greater than 62.5 µM throughout.
Take `Cc1ccc(NCCN(C)C)c2c(=O)c3ccccc3sc12`: the GI50 with CAKI-1 renal was 2.08 µM; in the assay on RPMI-8226 leukemia it was 1.67 µM; in the assay on RXF 393 renal, 1.96 µM; in the assay with SF-268 CNS, 1.97 µM; with HCT-15 colon it was 2.21 µM; with SW-620 colon it was 1.46 µM. For the same compound, the GI50 in the assay with SN12C renal was 2.45 µM; in the assay with SK-OV-3 ovarian it was 1.73 µM; with NCI-H23 lung, 1.97 µM; with UO-31 renal, 1.28 µM. In addition, the TGI in the assay with CAKI-1 renal is 7.56 µM; in the assay on RPMI-8226 leukemia, 4.21 µM; in the assay with RXF 393 renal, 4.59 µM; with SF-268 CNS it was 4.74 µM; in the assay with HCT-15 colon, 6.53 µM; in the assay with SW-620 colon, 3.02 µM. Moreover, the TGI worked out at 9.61 µM in the assay with SN12C renal, 3.92 µM with SK-OV-3 ovarian, 4.75 µM with NCI-H23 lung and 2.85 µM in the assay on UO-31 renal.
For the compound `NNC(=O)c1ccc(OCc2nc3ccccc3[nH]2)cc1`, the TGI in the assay on CAKI-1 renal, in the assay with RPMI-8226 leukemia, with RXF 393 renal, in the assay with SF-268 CNS, with HCT-15 colon and in the assay with SW-620 colon was greater than 100 µM in each case. In addition, the TGI with SN12C renal, in the assay on SK-OV-3 ovarian, in the assay on NCI-H23 lung and with UO-31 renal was greater than 100 µM throughout.
Regarding `COc1ccc(/C=C\c2cc(OC)c(OC)c(OC)c2)cc1OCC(=O)Nc1ccc2nc(C)sc2c1`, the GI50 was 2.19 µM with CAKI-1 renal; 1.98 µM in the assay on RPMI-8226 leukemia; 5.06 µM in the assay on RXF 393 renal; 3.61 µM in the assay on SF-268 CNS; 2.8 µM with HCT-15 colon; 4.7 µM in the assay with SW-620 colon. In addition, the GI50 with SN12C renal is 3.53 µM; in the assay with SK-OV-3 ovarian, 5.27 µM; in the assay with NCI-H23 lung it was 2.53 µM; in the assay with UO-31 renal, 2.41 µM. The TGI in the assay with CAKI-1 renal was 5.85 µM; in the assay with RPMI-8226 leukemia it was 4.69 µM; in the assay on RXF 393 renal, greater than 100 µM; in the assay on SF-268 CNS, 36.1 µM; in the assay on HCT-15 colon it was 10.4 µM; in the assay on SW-620 colon, 31.9 µM. Besides, the TGI with SN12C renal was greater than 100 µM; in the assay with SK-OV-3 ovarian, 50.4 µM; in the assay with NCI-H23 lung it was 7.95 µM; in the assay with UO-31 renal, 7.5 µM.
Regarding `CCS(=O)(=O)c1ccc(OC)c(Nc2ncc(-c3ccccc3Cl)o2)c1`, the GI50 with CAKI-1 renal is 24.3 µM; in the assay on RPMI-8226 leukemia, 13.4 µM; in the assay on RXF 393 renal, 7.35 µM; in the assay on SF-268 CNS, 11.7 µM; in the assay with HCT-15 colon it was 9.01 µM; in the assay on SW-620 colon it was 8.38 µM. For the same compound, the GI50 is 14.9 µM in the assay on SN12C renal, 8.47 µM in the assay with SK-OV-3 ovarian, 7.89 µM in the assay with NCI-H23 lung and 6.37 µM in the assay on UO-31 renal. In addition, the TGI was greater than 25 µM in the assay on CAKI-1 renal; greater than 25 µM in the assay with RPMI-8226 leukemia; greater than 21.7 µM in the assay with RXF 393 renal; greater than 25 µM in the assay with SF-268 CNS; greater than 25 µM with HCT-15 colon; greater than 25 µM in the assay on SW-620 colon. Further, the TGI with SN12C renal, in the assay with SK-OV-3 ovarian, in the assay on NCI-H23 lung and with UO-31 renal was greater than 25 µM throughout.
In the case of `COc1cc(/C=C/c2cc(/C=C/c3ccc(O)c(OC)c3)n(C(=O)Nc3ccc(Cl)cc3)n2)ccc1O`, the GI50 with CAKI-1 renal is 0.401 µM; with RPMI-8226 leukemia it was 0.376 µM; in the assay with RXF 393 renal it was 0.261 µM; with SF-268 CNS it was 0.58 µM; in the assay on HCT-15 colon, 0.43 µM; in the assay on SW-620 colon, 0.49 µM. Besides, the GI50 was 0.455 µM in the assay on SN12C renal, 0.426 µM in the assay on SK-OV-3 ovarian, 0.494 µM with NCI-H23 lung and 0.375 µM in the assay on UO-31 renal. Besides, the TGI came out at 36.6 µM in the assay on CAKI-1 renal; 2.48 µM in the assay with RPMI-8226 leukemia; 0.789 µM in the assay on RXF 393 renal; 4.2 µM in the assay with SF-268 CNS; 11.6 µM in the assay with HCT-15 colon; 2.73 µM in the assay on SW-620 colon. Also, the TGI in the assay on SN12C renal was 21.6 µM; in the assay on SK-OV-3 ovarian it was 1.8 µM; in the assay on NCI-H23 lung it was 2.36 µM; in the assay with UO-31 renal, 3.16 µM.
